From patent publication US11977068B2, “Method for testing ecotoxicity of disinfection by-products” (priority 2020, dated 2024)

Assays:
brine shrimp [1] = assay: Chronic toxicity test on second-instar brine shrimp (survival/mortality)
Procedure: (§1) S1, anhydrous freeze-dried eggs of a brine shrimp are hatched in artificial seawater to obtain a first-instar brine shrimp, where, a hatching temperature is (26±1)° C., the hatching is performed under a continuous aeration for a hatching time of (10-24) h, and an aeration gas source is air. After the hatching is finished, the first-instar brine shrimp and non-hatched brine shrimp eggs are separated immediately, and the first-instar brine shrimp is placed in the artificial seawater. The brine shrimp at different life stages may have different tolerance to toxicity, and therefore, a separation of the brine shrimp at different instars can avoid the instability of experimental results. S2, the first-instar brine shrimp is cultured in a light incubator for 24 h to obtain a second-instar brine shrimp, where, a culture temperature is (26±1)° C., a light time and a dark time are respectively continuous 12 h, and a light intensity in the light incubator is (1,000-3,000) Lux. S3. First, the second-instar brine shrimp is pre-placed in a water sample to be tested containing toxic substances and exposed for a predetermined time to enable the artificial seawater carried by the second-instar brine shrimp to mix uniformly with the water sample to be tested, and then the second-instar brine shrimp is put into a culture plate containing the water sample to be tested for an acute toxicity test with a time end-point of (42-54) h and a chronic toxicity test with a time end-point of (12-16) days. After the time end-point of the toxicity test is reached, the culture plate is slightly vibrated to observe the survival of the brine shrimp in each well. […] A mortality rate of the brine shrimp is obtained to calculate the toxicity of the water sample to the brine shrimp.
The remaining solution in each brown bottle is poured into a clean 150 mm crystallization dish. […] The culture plate is cultured in light. […] The time difference of transferring brine shrimps within and between groups should be shortened as far as possible to avoid the influence of excessive time difference on brine shrimp growth.

brine shrimp [2] = assay: Acute toxicity test on second-instar brine shrimp (survival/mortality); settings: for minimum effective concentration (defined as the concentration causing 20% death): second-instar brine shrimp
Procedure: as §1
(§2) Hatching of a brine shrimp: 3-5 g of anhydrous freeze-dried eggs of the brine shrimp is put into a 1,500 mL beaker containing 1,200 mL of seawater. The opening of the beaker is sealed with aluminum foil and the beaker is placed in a constant temperature water bath at (26±1)° C. A small air pump is used to blow air for aeration and hatching for 12 h. After the hatching is finished, the first-instar brine shrimp is randomly picked out with a Pasteur pipette immediately and placed in a 150 mm crystallization dish containing sufficient seawater.
(§3) Culture of the brine shrimp: the first-instar brine shrimp is cultured in a light incubator for 24 h. The conditions in the light incubator are as follows: a temperature is (25±1)° C., a light intensity is 1,000 Lux, and a light time and a dark time are respectively continuous 12 h.
(§4) Acute toxicity test: 150 mL of each water sample to be tested is put into a brown bottle, four groups of the water samples with different concentrations of IAM are added into a 12-well culture plate with a pipette, with 2.5 mL of liquid in each well, and each 3 wells is an experimental group with the same concentration of the water samples. The remaining solution in each brown bottle is poured into a clean 150 mm crystallization dish. At least 30 second-instar brine shrimps are transferred into 100-150 mL of the water sample to be tested at one time by the Pasteur pipette in the crystallizing dish, respectively. The second-instar brine shrimps that have been exposed to the solution are transferred by the Pasteur pipette to the culture wells with 10 second-instar brine shrimps in each well. The culture plate is cultured in light. The survival of the brine shrimps in each well is observed after 48 h. The time difference of transferring brine shrimps within and between groups should be shortened as far as possible to avoid the influence of excessive time difference on brine shrimp growth.

[3] = as above; settings: brine shrimp (Artemia), in vivo, other: immersion in the water sample in culture wells
Procedure: as §1, §2, §3, §4

| SMILES | mortality rate (brine shrimp [1]; 544.5 μM (acute minimum effective concentration), 14 days exposure) | survival rate of brine shrimp (brine shrimp [1]; 544.5 μM, 14 days exposure) | impact on the survival of brine shrimp in a short period (brine shrimp [2]; 544.5 μM, 48 h) | minimum effective concentration (defined as the concentration causing 20% death) (brine shrimp [2]; 48 h exposure, fitted from FIG. 2 data) | LC50 at 48 h [3] | mortality rate (brine shrimp [1]; 59.588 μM (acute minimum effective concentration), 16 days exposure) | survival rate of brine shrimp (brine shrimp [1]; 59.588 μM, 16 days exposure) | impact on the survival of brine shrimp in a short period (brine shrimp [2]; 59.588 μM, 54 h) | minimum effective concentration (defined as the concentration causing 20% death) (brine shrimp [2]; 54 h exposure, fitted from FIG. 3 data) | LC50 at 54 h [3] |
| --- | --- | --- | --- | --- | --- | --- | --- | --- | --- | --- |
| NC(=O)CI [IAM, iodoacetamide] | 100% | 0 | does not cause significant impact on the survival | 544.5 µM | 557 µM |  |  |  |  |  |
| O=C(O)CI [IAA, iodoacetic acid] |  |  |  |  |  | 100% | 0 | does not cause significant impact on the survival | 59.588 µM | 1050 µM |
